One assay concerns the target T1, PARP-1 (Homo sapiens, UniProt P09874).
T1 construct: purchased Trevigen
Nature of the assay: Chemiluminescent PARP assay (biotinylated PAR onto histone). The settings on record: incorporation of biotinylated PAR onto histone proteins. It is filed as biochemical. How it is done:
Because PARP-1 activation plays a prominent role in NMDA excitotoxicity we tested whether PARP-1 activity is directly affected by Iduna. PARP-1 activity was assessed by incorporation of biotinylated PAR onto histone proteins.
Chemiluminescent PARP assay for poly(ADP-ribosyl)ation of Histone H1: Activity of PARP-1 was determined by Trevigen Universal chemiluminescent PARP assay kit (Trevigen, Gaithersburg, Md., USA) in the presence of Iduna or the PARP-1 inhibitor 3-aminobenzamide (3-AB). According to manufacturer's instructions, the incorporation of biotinylated NAD+ (Trevigen) into the poly(ADP-ribose) polymer primed at solid phase immobilized histone H1 (Trevigen) was detected by the chemiluminescent assay, either in the presence or absence of recombinant Iduna. Reactions were performed with 34 μM total biotinylated NAD+ for 60 min at 25° C. in triplicates. Chemiluminescence was measured using a fluorescence multi-well plate reader (SOSTmax, Sunnyvale, Calif.) with an excitation at 544 nm excitation/590 nm emission. In the parallel wells, PARP1 activity was measured after the 3-aminobenzamide treatment at the same concentration of biotinylated NAD+ (34 μM).

The subject of the next assay is MCF7 cells. Nature of the assay: Laser micro-irradiation-induced DNA damage, recruitment of GFP-Iduna. As to conditions: 405 nm laser microirradiation. Format: cell-based, human. The procedure:
Live-cell imaging and Laser micro-irradiation-induced DNA damage: For induction of localized DNA damage, MCF 7 cells stably expressing GFP-Iduna or GFP-Iduna-YRAA were plated onto 25 mm glass bottom culture dishes for 48 h. Cells were presensitized with 10 μM 5-bromo-2′-deoxyuridine (BrdU, Sigma) for 24 h. Cells were incubated with 2 μM Hoechst (Invitrogen) for 5 min and mounted on a preheated (37° C.) stage on a Zeiss LSM 710 confocal microscope equipped with 405 nm laser source. A laser microbeam was focused on a small rectangular strip of nucleus through 63× oil objective to induce localized DNA damage. The laser setting was set to 100% power output with a scanning speed of 1 and 6-10 laser iterations. The kinetics were calculated using Zeiss Zen 2010 software. Time point before irradiation represents—1 min and the time point just after irradiation represent 0 min. Each data series was normalized with respect to base line data intensity values.

Another assay relates to primary neurons. Nature of the assay: H2O2-induced cell death in primary neurons. Format: cell-based, mouse. How it is done:
FIGS. 44 and 45—Iduna protects against peroxide-induced cell death in primary neurons. Primary neuronal cultures were transduced with lentiviruses expressing GFP, GFP-Iduna or GFP-Iduna-YRAA. 4 days following lentiviral transduction, cultures were treated with H2O2 (100 μM or 500 μM) and cell death assessed 24 h later using PI and Hoechst staining.
Cell Death Assessment: Following exposure of neuronal cultures to the various treatments neuronal survival was quantified and presented as percent of cell death. Percent cell death was determined as the ratio of live-to-dead cells compared with the percent cell death in control wells to account for cell death attributable to mechanical stimulation of the cultures. Quantification of neuronal survival was determined by staining treated cultures with 5 μM Hoechst 33342 and 2 μM propidium iodide (PI) (Invitrogen, Carlsbad, Calif.). Culture plates were placed on a mechanized stage of a Zeiss microscope and photomicrographs were collected by a blinded observer. The numbers of total and dead (PI positive) cells were counted by automated computer assisted software (Axiovision 4.6, Zeiss, Germany). The raw counts are presented in an Excel file for generation of percent cell death and statistical analysis. Glial nuclei fluoresce at a lower intensity than neuronal nuclei and were gated out by the software program. […]

A further assay deals with neuronal cultures. Put plainly: Caspase-dependent cell death (camptothecin, staurosporine) in neuronal cultures. Format: cell-based, mouse. The settings on record: for protection against cell death: 24 h. How it is done:
FIG. 42—Neuronal cultures expressing lenti-viral mediated GFP, GFP-Iduna or GFP-Iduna-YRAA were treated with camptothecin (CPT, 20 μM) and cell death assessed 24 h later using PI and Hoechst staining. […] Data represent the mean±SEM, n=4 of two independent experiments. *p<0.05 by ANOVA with Tukey-Kramer's posthoc test.
FIG. 43—Neuronal cultures expressing lenti-viral mediated GFP, GFP-Iduna or GFP-Iduna-YRAA were treated with staurosporine (STS, 500 nM) and cell death assessed 24 h later using PI and Hoechst staining. […] Data represent the mean±SEM, n=4 of two independent experiments. *p<0.05 by ANOVA with Tukey-Kramer's posthoc test.
Cell Death Assessment: Following exposure of neuronal cultures to the various treatments neuronal survival was quantified and presented as percent of cell death. Percent cell death was determined as the ratio of live-to-dead cells compared with the percent cell death in control wells to account for cell death attributable to mechanical stimulation of the cultures. Quantification of neuronal survival was determined by staining treated cultures with 5 μM Hoechst 33342 and 2 μM propidium iodide (PI) (Invitrogen, Carlsbad, Calif.). Culture plates were placed on a mechanized stage of a Zeiss microscope and photomicrographs were collected by a blinded observer. The numbers of total and dead (PI positive) cells were counted by automated computer assisted software (Axiovision 4.6, Zeiss, Germany). The raw counts are presented in an Excel file for generation of percent cell death and statistical analysis. Glial nuclei fluoresce at a lower intensity than neuronal nuclei and were gated out by the software program. At least two separate experiments using four separate wells were performed for all data points.

A further assay has as its system PAR polymer. Put plainly: PAR polymer overlay / dot blot (far western). Format: binding. The settings on record: PAR polymer overlay assay. From the text:
PAR binding is specified by a sequence of approximately 20 amino acids containing N-terminal basic amino acids and a C-terminal region containing alternating hydrophobic and basic amino acids (FIG. 24). Iduna contains a predicted PAR polymer binding sequence within amino acids 144-167 of the WWE domain (FIGS. 1 and 24). The PAR-binding domain was defined by comparing to the consensus sequence for PAR-binding and the known PAR binding domain of Histone 3 (FIG. 24). HEK293 cells were transfected with GFP, GFP-Iduna lacking the WWE domain (GFP-IdunaΔWWE), GFP-Iduna lacking the RF domain (GFP-IdunaARF), and full-length GFP-Iduna, followed by immunoprecipitation with a GFP antibody. […] Only GFP-Iduna-ARF and full-length GFP-Iduna can co-immunoprecipiate PAR binding proteins (FIG. 25). The critical amino acids in the PAR binding domain, 156Y and 157R, were mutated to 156A and 157A in full length Iduna (Iduna-YRAA). […] Similar results are obtained with a biotin-tagged PAR polymer followed by detection with an anti-biotin antibody (FIG. 26). […] Histone H3 is a known PAR binding protein and was used as a positive control for the PAR overlay assay. […] An assay based on electrophorectic mobility shift (EMSA) for PAR binding was developed to monitor PAR polymer binding to Iduna. […]

Where a SMILES comes first, the peptide text is derived from it. The star is where a group is joined. Cbz = O=C(OCc1ccccc1)*; CH2F = FC*

T1 sequence (P09874 whole entry): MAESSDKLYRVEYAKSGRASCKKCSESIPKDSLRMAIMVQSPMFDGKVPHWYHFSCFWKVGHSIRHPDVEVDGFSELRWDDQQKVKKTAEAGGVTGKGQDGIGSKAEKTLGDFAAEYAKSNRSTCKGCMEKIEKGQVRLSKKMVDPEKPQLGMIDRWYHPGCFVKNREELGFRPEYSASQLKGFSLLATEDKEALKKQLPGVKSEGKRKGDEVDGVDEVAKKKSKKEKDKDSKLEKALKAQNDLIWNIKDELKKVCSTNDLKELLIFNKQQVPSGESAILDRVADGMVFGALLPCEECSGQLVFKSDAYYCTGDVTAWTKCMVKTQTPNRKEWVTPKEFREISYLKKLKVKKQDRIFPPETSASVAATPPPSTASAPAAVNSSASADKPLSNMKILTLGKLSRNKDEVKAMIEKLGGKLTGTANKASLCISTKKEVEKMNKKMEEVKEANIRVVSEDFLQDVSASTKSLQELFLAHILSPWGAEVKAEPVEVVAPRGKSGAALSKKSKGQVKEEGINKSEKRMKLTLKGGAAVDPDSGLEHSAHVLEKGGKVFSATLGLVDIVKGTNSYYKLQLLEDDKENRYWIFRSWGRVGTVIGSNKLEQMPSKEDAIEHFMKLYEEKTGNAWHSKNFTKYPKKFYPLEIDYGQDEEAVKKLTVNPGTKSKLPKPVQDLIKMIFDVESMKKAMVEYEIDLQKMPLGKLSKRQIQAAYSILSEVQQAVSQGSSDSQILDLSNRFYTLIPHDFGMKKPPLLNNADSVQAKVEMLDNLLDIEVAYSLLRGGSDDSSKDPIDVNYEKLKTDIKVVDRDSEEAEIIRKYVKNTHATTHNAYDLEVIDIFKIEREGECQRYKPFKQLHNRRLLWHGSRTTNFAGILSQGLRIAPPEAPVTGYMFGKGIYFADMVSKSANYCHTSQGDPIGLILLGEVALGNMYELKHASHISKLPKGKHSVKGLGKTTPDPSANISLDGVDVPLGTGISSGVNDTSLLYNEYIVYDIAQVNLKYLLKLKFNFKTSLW

On to `NC(=O)c1cccc(N)c1` [3-AB, 3-aminobenzamide, reference compound], for which the PARP-1 activity entry at PARP-1 is “inhibits PARP-1 activity”.
Regarding `CN(C)Cc1ccc(-c2nc3cccc4c3n2CCNC4=O)cc1` [AG14361], the “recruitment of GFP-Iduna to laser-induced DNA breaks” value in the assay with MCF7 cells is recorded as “blocks the translocation of Iduna”.
With `O=C1NCCc2c(OCCCCN3CCCCC3)cccc21` [DPQ], the “protection against H2O2 toxicity” value is on record as “only protected against 100 μM H2O2 toxicity” in the assay on primary neurons (100 μM H2O2) and “Neither GFP-Iduna nor DPQ protect” in the assay on primary neurons (500 μM H2O2).
Take `COC(=O)C[C@H](NC(=O)[C@H](C)NC(=O)[C@@H](NC(=O)OCc1ccccc1)C(C)C)C(=O)CF` [z-VAD fmk] (Cbz-Val-Ala-Asp(OMe)-CH2F): the “protection against cell death” value in the assay with neuronal cultures (camptothecin 20 μM) and in the assay with neuronal cultures (staurosporine 500 nM) was “provides protection” in each case. Further, in the assay with neuronal cultures (staurosporine 500 nM or camptothecin 20 μM), the apoptotic cell death entry was “inhibited cell death”.
As to “Iduna 144-167: synthesized peptide fragment of the predicted PAR polymer binding sequence, amino acids 144-167 of the WWE domain (LYVADLENMVQYRRNEHGRRRKIK; UniProt Q9NTX7 144-167, looked up, fragment)”, the PAR polymer binding result in the assay with PAR polymer is “binds to PAR polymer in a manner comparable to full-length Iduna”.

Source of the values: US9623039B2, “Treatment and prevention of pathological conditions using iduna related techniques and compositions” (VALTED, LLC, priority 2010, dated 2017).
